Patent publication US8349791B2, “Polypeptides that bind membrane proteins” (The Trustees of the University of Pennsylvania, priority 2006, dated 2013)

Target: T1, αVβ3 (Homo sapiens, UniProt P06756)
T1 construct: Platelets express a second integrin with a β3 subunit, αVβ3; endogenous in cells; host or cells: gel-filtered human platelets
Test: Platelet adhesion to immobilized osteopontin
Format: cell-based
Description: The integrin αVβ3 mediates adhesion of platelets to the matrix protein osteopontin, potentially exposed to the circulating blood by rupture of an atherosclerotic plaque. […] The potency of anti-αv in inducing platelet adhesion to osteopontin was approximately 10-fold lower than that of anti-αIIb in inducing platelet aggregation (FIG. 11). Adhesion of platelets in 100 μl aliquots of gel-filtered human platelets to immobilized osteopontin was induced by the indicated concentrations of anti-αV, either alone or in the presence of the calcium chelator 2.5 mM EDTA or the global platelet signal transduction inhibitor 2 μM PGE1. Platelets stimulated by 20 μM ADP served as a positive control. Platelet adhesion was quantitated using a colorimetric assay based on measurement of platelet acid phosphatase activity. The data shown in FIG. 11 are the mean and standard error of measurements made in triplicate. Anti-αV-induced adhesion was prevented by agents that inhibit the interaction of αVβ3's extracellular ligand-binding site with osteopontin, including EDTA or the specific RGD-containing αVβ3 antagonist XJ735, confirming that anti-αV induced platelet adhesion to osteopontin is mediated by αVβ3.
Platelet adhesion to osteopontin was measured as previously described. See Fleming K G J. Mol. Biol. 323, 563-571 (2002). Briefly, 96-well flat bottom microtiter plates (Immulon 2, Dynatech, Chantilly Va.) were coated with 5 μg/ml of recombinant osteopontin dissolved in 50 mM NaHCO3 buffer, pH 8.0, containing 150 mM NaCl. Unoccupied protein binding sites on the wells were blocked with 5 mg/ml bovine serum albumin dissolved in the same buffer. One hundred μl aliquots of a gel-filtered platelet suspension containing ≈2-5×10^6 platelets were added to the protein-coated wells in the absence or presence of anti-αV or ADP. Following an incubation for 30 min at 37° C. without agitation, the plates were washed four times and the number of adherent platelets measured using a colorimetric assay that measure platelet acid phosphatase activity. The polypeptide was added from a DMSO solution such that the final concentration of DMSO was no greater than 0.5%. All controls also had 0.5% DMSO in the buffer.

T1 sequence (P06756 891-1048 limits assumed): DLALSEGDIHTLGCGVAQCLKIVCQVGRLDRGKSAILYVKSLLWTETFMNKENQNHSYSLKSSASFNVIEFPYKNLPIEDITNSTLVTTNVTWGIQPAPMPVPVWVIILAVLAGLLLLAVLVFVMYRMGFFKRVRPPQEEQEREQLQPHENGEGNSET
T1 sequence (P06756 31-889 partner limits assumed): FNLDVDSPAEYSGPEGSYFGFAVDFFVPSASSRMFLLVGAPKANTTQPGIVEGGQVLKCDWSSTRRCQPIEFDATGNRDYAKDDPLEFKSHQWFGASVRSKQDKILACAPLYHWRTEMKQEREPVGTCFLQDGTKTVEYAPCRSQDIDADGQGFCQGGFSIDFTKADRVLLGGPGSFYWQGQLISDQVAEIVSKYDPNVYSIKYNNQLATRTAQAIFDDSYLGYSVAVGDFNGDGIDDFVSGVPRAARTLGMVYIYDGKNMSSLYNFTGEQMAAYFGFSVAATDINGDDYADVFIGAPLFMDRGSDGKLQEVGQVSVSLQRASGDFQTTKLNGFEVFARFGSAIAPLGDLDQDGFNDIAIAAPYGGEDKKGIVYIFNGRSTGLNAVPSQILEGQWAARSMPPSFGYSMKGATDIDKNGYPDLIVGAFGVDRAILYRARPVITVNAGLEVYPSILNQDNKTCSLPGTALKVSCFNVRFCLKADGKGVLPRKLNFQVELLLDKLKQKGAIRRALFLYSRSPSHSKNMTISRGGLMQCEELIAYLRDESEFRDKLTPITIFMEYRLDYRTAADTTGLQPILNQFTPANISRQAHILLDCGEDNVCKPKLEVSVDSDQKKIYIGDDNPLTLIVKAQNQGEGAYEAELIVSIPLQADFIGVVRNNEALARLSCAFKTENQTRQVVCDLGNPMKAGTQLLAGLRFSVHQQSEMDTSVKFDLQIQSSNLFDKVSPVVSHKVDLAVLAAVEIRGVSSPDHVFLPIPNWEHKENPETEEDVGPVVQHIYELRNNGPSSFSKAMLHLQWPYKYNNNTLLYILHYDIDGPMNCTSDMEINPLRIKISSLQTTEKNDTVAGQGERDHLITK
T1 sequence (P05106 27-788 partner): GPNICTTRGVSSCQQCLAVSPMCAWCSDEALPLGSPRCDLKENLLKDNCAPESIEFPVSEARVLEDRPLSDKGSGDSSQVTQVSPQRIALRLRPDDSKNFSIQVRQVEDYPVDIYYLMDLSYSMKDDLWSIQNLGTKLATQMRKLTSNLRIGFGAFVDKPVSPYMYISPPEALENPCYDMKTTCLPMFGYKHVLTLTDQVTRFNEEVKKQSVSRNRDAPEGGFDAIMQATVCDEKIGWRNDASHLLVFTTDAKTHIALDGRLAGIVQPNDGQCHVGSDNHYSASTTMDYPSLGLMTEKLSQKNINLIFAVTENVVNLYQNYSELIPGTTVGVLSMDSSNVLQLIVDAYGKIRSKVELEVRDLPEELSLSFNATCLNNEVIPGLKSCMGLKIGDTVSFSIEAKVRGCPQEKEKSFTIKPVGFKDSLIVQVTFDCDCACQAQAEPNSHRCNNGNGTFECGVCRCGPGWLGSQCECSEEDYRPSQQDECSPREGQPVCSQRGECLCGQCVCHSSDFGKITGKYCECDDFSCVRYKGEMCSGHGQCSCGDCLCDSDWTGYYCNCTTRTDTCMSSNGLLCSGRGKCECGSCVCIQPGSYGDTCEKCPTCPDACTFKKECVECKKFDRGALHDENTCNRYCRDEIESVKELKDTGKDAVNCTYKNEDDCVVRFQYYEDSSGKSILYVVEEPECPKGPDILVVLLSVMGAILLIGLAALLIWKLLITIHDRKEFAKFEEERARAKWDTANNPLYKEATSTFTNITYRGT

AYVFILLSFILGTLLGFLVMFWA [anti-αV]
potency in inducing platelet adhesion to osteopontin, lower than that of anti-αIIb in inducing platelet aggregation: approximately 10 fold | induced adhesion after pre-incubating the platelets with PGE1 (2 μM PGE1): only minimally affected | induced adhesion in the presence of EDTA or αVβ3 antagonist XJ735 (2.5 mM EDTA): prevented | platelet adhesion to osteopontin (absence of pharmacological platelet agonists): induced robust platelet adhesion to osteopontin
